Source: patent publication US20190226949A1, “IRIDIUM COMPLEXES FOR CELLULAR IMAGING” (UNIVERSITY OF SOUTH AUSTRALIA, priority 2016, published 2019)
“And” between values parts separate entries of the source, which are not always exact repeats. Identical values can stand only once.

Legend:
[1] = Photophysical measurements (absorption, emission, lifetime, quantum yield) in diluted solutions; format: physicochemical; conditions: for Emission λem / τaer, excited state lifetime (relative weight in parentheses) / τdeaer, excited state lifetime (relative weight in parentheses): 298K; for Φaer, quantum yield / Φdeaer, quantum yield: versus Ru(bpy)3^2+ in water (φr = 0.028); for τdeaer, excited state lifetime (relative weight in parentheses) / Φdeaer, quantum yield: deaerated; for knr: calculated as [(1 − φ)/τ] from deaerated solutions; for kr: calculated as [φ/τ] from deaerated solutions; for Φ, quantum yield: versus Ru(bpy)3^2+ in water
Excerpt: A summary of the photophysical data for the complexes as diluted solutions (10^−5 M) in dichloromethane, water, PBS, lysosomal fluid solution, and ethyl laurate is reported in Table 1. All the listed aqueous media also contain 0.1% DMSO to favour the solubilisation of the complexes. The various solvents have been chosen to identify potential modulations on the photophysical behaviour of the iridium complexes in diverse cellular environments such as cytoplasm, endosome/lysosomes acidic organelles, or lipid-rich compartments like membranes, endoplasmic reticulum, and lipid droplets. In general, the photophysical characteristics were measured in aerated solutions to take into account the presence of oxygen in live cells. On the other hand, dichloromethane solutions were compared as aerated and degassed to confirm oxygen sensitivity and triplet character of the excited states of the complexes.
Absorption spectra were recorded at room temperature using a Cary 4000 UV/Vis spectrometer. Uncorrected steady state emission and excitation spectra were recorded on an Edinburgh FLSP980-S2S2-stm spectrometer equipped with: i) a temperature-monitored cuvette holder; ii) 450 W Xenon arc lamp; iii) double excitation and emission monochromators; iv) a Peltier cooled Hamamatsu R928P photomultiplier tube (spectral range 200-870 nm). Emission and excitation spectra were corrected for source intensity (lamp and grating) and emission spectral response (detector and grating) by a calibration curve supplied with the instrument. According to the approach described by Demas and Crosby, luminescence quantum yields (Φem) were measured in optically dilute solutions (O.D.<0.1 at excitation wavelength) obtained from absorption spectra on a wavelength scale [nm] and compared to the reference emitter by the following equation: […]
where A is the absorbance at the excitation wavelength (λ), I is the intensity of the excitation light at the excitation wavelength (λ), n is the refractive index of the solvent, D is the integrated intensity of the luminescence and Φ is the quantum yield. The subscripts r and x refer to the reference and the sample, respectively. The quantum yield determinations were performed at identical excitation wavelength for the sample and the reference, therefore cancelling the I(λr)/I(λx) term in the equation. The quantum yields of complexes were measured against Rubipy in water (Φr=0.028). Emission lifetimes (z) were determined with the time correlated single photon counting technique (TCSPC) with the same Edinburgh FLSP980-S2S2-stm spectrometer using either a pulsed picosecond LED (EPLED/EPL 377 nm, FHWM<800 ps) or a microsecond flashlamp. The goodness of fit was assessed by minimising the reduced χ^2 function and by visual inspection of the weighted residuals. The solvents used for the preparation of the solutions for the photophysical investigations were of LR grade and the water was deionised. Degassing of the dichlorometane solutions was performed using the freeze-pump-thaw method. Experimental uncertainties are estimated to be ±8% for lifetime determinations, ±20% for quantum yields, ±2 nm and ±5 nm for absorption and emission peaks, respectively.

[2] = Lipophilicity by shake-flask method (7.4-buffered PBS / n-octanol); format: physicochemical; conditions: 7.4-buffered PBS solution and n-octanol
Experimental: The lipophilicity of the iridium complexes was measured by the shake-flask method using 7.4-buffered PBS and n-octanol as solvents (Table 2). The values range between 1.49 and 2.68 are typical for cyclometalated iridium complexes that have not been bioconjugated. […] In general, neutral complexes have log D7.4 values above 2.00 and there is an increased in lipophilicity of extending the tetrazolato ligand with the addition of a phenyl spacer in [Ir(ppy)2(TzPyPhCN)], or by extending the conjugation on passing from pyridine to quinoline or isoquinoline for [Ir(ppy)2(TzQn)] and [Ir(ppy)2(TziQn)]. Methylation in all cases reduces lipophilicity to log D7.4 values […], with the same trend within the family of methylated complexes as previously observed for the neutral ones.

[3] = test system: H9c2 rat cardiomyoblast cells; assay: Staining and co-staining of live H9c2 cells, confocal and two-photon microscopy; format: cell-based
Experimental: Live H9c2 rat cardiomyoblasts were incubated with the iridium complexes for 30 minutes. Complexes were made to a final concentration of 20 μM in the cell culture medium with DMSO concentration <0.2%. Under these conditions, the luminescence from the iridium complexes within the cells was detected via confocal microscopy under single-photon excitation (403 nm) or two-photon excitation (810-840 nm).
To determine the localisation of the iridium complexes, co-staining experiments were carried out with the use of ER-Tracker™ Red (endoplasmic reticulum), LysoTracker® Red DND-99 (acidic compartments), MitoTracker® Red (mitochondria), BODIPY® 500/510 C1, C12(fatty acid) or β-BODIPY® FL HPC (phospholipids). […] This difference was also in agreement with the trend of the quantum yield data illustrated before and detection of internalised complex by ICP-MS.
H9c2 rat cardiomyoblast cell line was a kind gift from Professor Janna Morrison (University of South Australia). The H9c2 cells were maintained in high-glucose (4500 mg/L) DMEM medium (Sigma-Aldrich, USA) containing 10% fetal bovine serum (FBS; In Vitro Technologies, USA) and 2 mM L-glutamine (Sigma-Aldrich, USA) at 37° C. and 5% CO2. The H9c2 cells were cultured in […] flasks, and cells (1×10^6 cells/mL) that had been passaged, from two up to five times were used for experiments. For live cell imaging and MTS assay, the H9c2 cells (1×10^5 cells/mL) were cultured overnight in either ibidi μ-Slide 8 wells in a final volume of 250 μL or 96-well microtiter plate in a final volume of 200 μL in absence of Ir-based molecular probes.
The H9c2 cells were incubated with 20 μM of Ir-based molecular probes for 30 minutes in FBS-free media (300 μL) at 37° C. and 5% CO2. These cells were washed twice with phosphate buffered saline (PBS) and once with FBS-free media, and then co-stained with either ER-Tracker™ Red (BODIPY® TR Glibenclamide), LysoTracker® Red DND-99, MitoTracker® Red CMXRos (1H,5H,11H,15H-Xantheno[2,3,4-ij:5,6,7-i′j′]diquinolizin-18-ium, 9-[4-(chloromethyl)phenyl]-2,3,6,7,12,13,16,17-octahydro-, chloride), β-BODIPY® FL C5-HPC (2-(4,4-Difluoro-5,7-Dimethyl-4-Bora-3a,4a-Diaza-s-Indacene-3-Pentanoyl)-1-Hexadecanoyl-sn-Glycero-3-Phosphocholine) or BODIPY® 500/510 C1, C12 (4,4-Difluoro-5-Methyl-4-Bora-3a,4a-Diaza-s-Indacene-3-Dodecanoic Acid), which were obtained from Life Technologies Australia Pty Ltd, Australia. Cell biology analysis was carried out with a minimum of two experimental groups. Imaging analysis was performed using a Nikon A1+ confocal microscope equipped with 403 nm, 488 nm, 561 nm and 640 nm solid-state lasers (Nikon, Japan) and OKOLab Microscope Incubator (Okolab USA Inc., USA). The final preparation of the images was conducted with Adobe Photoshop CC (Adobe Systems Inc., USA).
The H9c2 cells were incubated with 20 μM of Ir-based molecular probes for 30 minutes in FBS-free media (300 μL) at 37° C. and 5% CO2. These cells then were washed with phosphate buffered saline (PBS) and imaged using Zeiss LSM710 META NLO inverted microscope supplemented with a two-photon Mai-Tai®, tunable Ti:Sapphire femtosecond pulse laser (710-920 nm, Spectra-Physics). Fluorescence of Ir-based molecular probes was detected using the following settings: two-photon excitation wavelength 830 nm, beam splitter MBS 690+, emission interval 520-650 nm. The H9c2 cells were exposed to two-photon illumination between 810-840 nm. A continuum of lambda stack images was captured across the emission spectrum 416-728 nm. The images were acquired using a Plan-APOCHROMAT 63X/NA1.4 oil immersion objective. The final preparation of the images was conducted with Adobe Photoshop CC (Adobe Systems Inc., USA).

Structure (SMILES)	Emission λem ([1]; DCM, 10^−5 M)	τaer, excited state lifetime (relative weight in parentheses) ([1]; DCM, aerated)	Φaer, quantum yield ([1]; DCM, aerated)	τdeaer, excited state lifetime (relative weight in parentheses) ([1]; DCM)	Φdeaer, quantum yield ([1]; DCM)	knr ([1]; DCM)	kr ([1]; DCM)	Emission λem ([1]; H2O with 0.1% DMSO, aerated)	Φ, quantum yield ([1]; H2O with 0.1% DMSO, aerated)	logD7.4, distribution coefficient [2]	Absorption λabs [nm] (10^4ε [M^−1cm^−1]) ([1]; DCM, 10^−5 M)	Absorption λabs [nm] (10^4ε [M^−1cm^−1]) ([1]; H2O with 0.1% DMSO, 10^−5 M)	logD ([2]; pH 7.4, read-out: logD7.4, distribution coefficient)	cellular localisation (co-staining) ([3]; live H9c2, 20 μM, 30 minutes)	emission profile from cells ([3]; live H9c2, one-photon or two-photon excitation)	emission in the various solvents ([1]; dichloromethane, water, PBS, lysosomal fluid, ethyl laurate)	emission detected from stained cells ([3]; live H9c2, 20 μM, 30 minutes)
C[n+]1nc2[n](n1)[Ir]13([c]4cc(F)cc(F)c4-c4cccc[n+]41)([c]1cc(F)cc(F)c1-c1cccc[n+]13)[n+]1cc(C#N)ccc1-2 [[Ir(F2ppy)2(MeTzPyCN)]^+]	600 nm	287 ns	0.057	551 ns	0.188	1.601 10^6s^−1	2.142 10^5s^−1	636 nm	0.005	–	250 (3.56) nm (10^4ε [M^−1cm^−1]) and 316 (1.28) nm (10^4ε [M^−1cm^−1]) and 356 (0.58) nm (10^4ε [M^−1cm^−1])	260 (4.12) nm (10^4ε [M^−1cm^−1]) and 309 (1.55) nm (10^4ε [M^−1cm^−1]) and 353 (0.66) nm (10^4ε [M^−1cm^−1])	1.86 ± 0.02	staining pattern consistent with mitochondrial localisation	blue-shifted and almost superimposable bands between these cationic complexes and their neutral analogues	–	–
N#Cc1ccc2[n+](c1)[Ir]13([c]4cc(F)cc(F)c4-c4cccc[n+]41)([c]1cc(F)cc(F)c1-c1cccc[n+]13)[n]1nnnc1-2 [[Ir(F2ppy)2(TzPyCN)]]	542 nm	140 ns	0.042	697 ns	0.406	0.852 10^6s^−1	5.825 10^5s^−1	552 nm	0.057	2.01 ± 0.05	–	256 (4.83) nm (10^4ε [M^−1cm^−1]) and 302 (3.36) nm (10^4ε [M^−1cm^−1]) and 366 (1.16) nm (10^4ε [M^−1cm^−1])	–	–	–	–	–
C[n+]1nc2[n](n1)[Ir]13([c]4ccccc4-c4cccc[n+]41)([c]1ccccc1-c1cccc[n+]13)[n+]1cc(C#N)ccc1-2 [[Ir(ppy)2(MeTzPyCN)]^+]	680 nm	–	0.012	–	0.014	–	–	–	–	–	–	–	–	–	–	appreciable emission only in dichloromethane solution	no emission was detected from stained cells

Further lines, with some results ahead:

Emission λem ([1]; DCM, 10^−5 M)	τaer, excited state lifetime (relative weight in parentheses) ([1]; DCM, aerated)	Φaer, quantum yield ([1]; DCM, aerated)	τdeaer, excited state lifetime (relative weight in parentheses) ([1]; DCM)	Φdeaer, quantum yield ([1]; DCM)	knr ([1]; DCM)	kr ([1]; DCM)	Emission λem ([1]; H2O with 0.1% DMSO, aerated)	Φ, quantum yield ([1]; H2O with 0.1% DMSO, aerated)	logD7.4, distribution coefficient [2]	Structure (SMILES)	Absorption λabs [nm] (10^4ε [M^−1cm^−1]) ([1]; DCM, 10^−5 M)	Absorption λabs [nm] (10^4ε [M^−1cm^−1]) ([1]; H2O with 0.1% DMSO, 10^−5 M)	logD ([2]; pH 7.4, read-out: logD7.4, distribution coefficient)	cellular localisation (co-staining) ([3]; live H9c2, 20 μM, 30 minutes)	emission profile from cells ([3]; live H9c2, one-photon or two-photon excitation)	emission in the various solvents ([1]; dichloromethane, water, PBS, lysosomal fluid, ethyl laurate)	emission detected from stained cells ([3]; live H9c2, 20 μM, 30 minutes)
560 nm	114 ns	0.023	880 ns	0.149	0.967 10^6s^−1	1.693 10^5s^−1	580 nm	0.055	2.68 ± 0.08	N#Cc1ccc(-c2ccc3[n+](c2)[Ir]24([c]5ccccc5-c5cccc[n+]52)([c]2ccccc2-c2cccc[n+]24)[n]2nnnc2-3)cc1 [[Ir(ppy)2(TzPyPhCN)]]	268 (3.95) nm (10^4ε [M^−1cm^−1]) and 290 (3.64) nm (10^4ε [M^−1cm^−1]) and 345 (0.58) nm (10^4ε [M^−1cm^−1]) and 423 (0.27) nm (10^4ε [M^−1cm^−1])	286 (1.87) nm (10^4ε [M^−1cm^−1]) and 350 (0.86) nm (10^4ε [M^−1cm^−1]) and 421 (0.34) nm (10^4ε [M^−1cm^−1])	–	–	–	–	–
580 nm	153 ns	0.021	831 ns	0.065	1.125 10^6s^−1	0.782 10^5s^−1	600 nm	0.039	2.23 ± 0.04	c1cc[c]2c(c1)-c1cccc[n+]1[Ir]213([c]2ccccc2-c2cccc[n+]21)[n]1nnnc1-c1ccc2ccccc2[n+]13 [[Ir(ppy)2(TzQn)]]	263 (8.44) nm (10^4ε [M^−1cm^−1]) and 345 (1.97) nm (10^4ε [M^−1cm^−1]) and 428 (0.42) nm (10^4ε [M^−1cm^−1])	266 (4.41) nm (10^4ε [M^−1cm^−1]) and 350 (2.35) nm (10^4ε [M^−1cm^−1]) and 425 (0.97) nm (10^4ε [M^−1cm^−1])	–	–	–	–	–
535, nm and 575 nm and 620 nm	497 ns	0.036	6713 ns	0.144	0.128 10^6s^−1	0.214 10^5s^−1	590 nm	0.018	2.57 ± 0.05	c1cc[c]2c(c1)-c1cccc[n+]1[Ir]213([c]2ccccc2-c2cccc[n+]21)[n]1nnnc1-c1c2ccccc2cc[n+]13 [[Ir(ppy)2(TziQn)]]	260 (9.77) nm (10^4ε [M^−1cm^−1]) and 340 (3.13) nm (10^4ε [M^−1cm^−1]) and 424 (0.75) nm (10^4ε [M^−1cm^−1])	268 (3.42) nm (10^4ε [M^−1cm^−1]) and 350 (2.00) nm (10^4ε [M^−1cm^−1]) and 435 (0.80) nm (10^4ε [M^−1cm^−1])	–	–	–	–	–
